Source: patent US10662210B2, “Compositions and methods comprising osmium for the treatment of cancers” (Massachusetts Institute of Technology, priority 2014, dated 2020)
Where two headings read alike, the source gives them in different places.

Columns and labels:
Format in all cases: cell-based, human
[1] = system: genomic DNA from A2780 cells; assay: Intracellular DNA osmium content; conditions: 10 μM, 12 h
Method: To gain further insight into the modes of action of 2 and 4, immunoblotting analyses were conducted to monitor changes in expression of biomarkers related to the DNA damage pathway (FIG. 8). […] This difference could be related to steric effects imposed by the phenyl groups in 4.
To measure the amount osmium on genomic DNA, ca. 1 million A2780 cells were treated with 10 μM of the complexes at 37° C. for 12 h. Then the media were removed, the cells were washed with PBS solution (1 mL×3), harvested, and centrifuged. The cellular pellet was suspended in DNAzol (1 mL, genomic DNA isolation reagent, MRC). The DNA was precipitated with ethanol (0.5 mL), washed with 75% ethanol (0.75 mL×3), and re-dissolved in 200 μL of 8 mM NaOH. The DNA concentration was determined by UV-visible spectroscopy, and osmium was quantified by GFAAS. The reported values are the average of at least three independent experiments with the error reported as the standard deviation.

A2780 cells = assay: Cytotoxicity MTT assay with pathway and cell death inhibitors; conditions: for effect of chloroquine and IM-54 on potency: inhibitors 10 μM; for effect of p53 inhibitors on toxicity: pifithrin-α and pifithrin-μ, both 10 μM; for IC50: 72 hours incubation
Method: This finding led to the investigation of the possibility that 4 may induce endoplasmic reticulum (ER) stress. Co-administration of 4 and salubrinal (10 μM), a known ER stress inhibitor, reduced the cytotoxicity of 4 in A2780 cells. […] To further validate the ER as the main target for 4, the expression of proteins related to the unfolded protein response (UPR) was monitored. […] ER membrane expansion is widely associated with ER stress. With this fact in mind the ER size of A2780 cells upon incubation with 4 were examined using fluorescence microscopy. Relative to untreated controls (FIG. 3B), cells exposed to 4 (10 μM) for 4 h had 25.1% larger ER coverage (FIG. 3C). The ER size relative to the whole cell of the untreated controls was about 30% and the ER size relative to the whole cell of the treated samples was about 55%.
Having established the intracellular targets of 2 and 4, the role of p53, a cell cycle and apoptosis regulator, in the cellular responses evoked was investigated. […] Therefore, p53 played a fundamental role in coordinating the cellular response to 2-induced DNA damage. […] (FIG. 13). […] To relate p53 to potency, cytotoxicity studies were conducted in the presence of p53 inhibitors pifithrin-α and pifithrin-μ. (both 10 μM). […] The IC50 values of compound 2 in the absence and presence of p53 inhibitor pifithrin-μ after 72 hours incubation was about 2 μM and about 30 μM, respectively.
The colorimetric MTT assay was used to determine the toxicity of the osmium complexes and cisplatin. Cells (2×10^3) were seeded in each well of a 96-well plate. After incubating the cells overnight, various concentrations of test compound (0.3-100 μM) were added and incubated for 72 h (total volume 200 μL). The test compounds were prepared as 10 mM solutions in DMSO and diluted using media. The final concentration of DMSO in each well was 0.5% and this amount was present in the untreated control as well. Cisplatin was prepared as a 5 mM solution in PBS and diluted further using media. After 72 h, the medium was removed, 200 μL of a 0.4 mg/mL solution of MTT in DMEM or RPMI was added, and the plate was incubated for an additional 1-2 h. The DMEM/MTT or RPMI/MTT mixture was aspirated and 200 μL of DMSO was added to dissolve the resulting purple formazan crystals. The absorbance of the solution wells was read at 550 nm. Absorbance values were normalized to DMSO-containing control wells and plotted as concentration of test compound versus % cell viability. IC50 values were interpolated from the resulting dose dependent curves. The reported IC50 values are the average from at least three independent experiments, each of which consisted of six replicates per concentration level.
For specific pathway and cell death inhibitor assays, inhibitors of p53 (pifithrin-α, 10 μM and pifithrin-μ, 10 μM), ER stress (salubrinal, 10 μM), necrosis (IM-54, 10 μM), and autophagocytosis (chloroquine, 10 μM) were added to cells and incubated for 0-1 h prior to treatment with the test compounds.

[2] = system: cleaved caspase 3, 7, 9 and PARP in A2780 cells; assay: Immunoblotting analysis, apoptosis pathway; conditions: 72 h
Method: To have a more complete understanding of the cellular response induced by 2 or 4, their mode of cell killing was evaluated. Many clinically approved cancer drugs exert their cytotoxic effects through apoptosis, and so the features related to this pathway were monitored. Apoptotic cells underwent morphological changes that lead to cell membrane disorientation. […] Cells can undergo other forms of cell death such as necrosis and autophagy. To probe these pathways, cytotoxicity assays were carried out in the presence of […], chloroquine, and IM-54, respectively. Because both chloroquine and IM-54 had little effect on the potency of either of the osmium complexes, necrosis and autophagy were ruled out as possible death pathways. […] On the other hand, 4 initiated ER stress, culminating in p53 independent, caspase directed apoptosis (FIG. 4).
A2780 cells (5×10^5 cells) were incubated with the osmium complexes (concentrations, μM) for 72 h at 37° C. […] After incubation with horseradish peroxidase-conjugated secondary antibodies (Cell Signalling Technology), immune complexes were detected with the ECL detection reagent (BioRad) and analyzed using an Alpha Innotech ChemiImager™ 5500 fitted with a chemiluminescence filter.

| Structure (SMILES) | Os/DNA ratio on genomic DNA [1] | effect of chloroquine and IM-54 on potency (A2780 cells) | effect of p53 inhibitors on toxicity (A2780 cells) | IC50 increase on co-administration of salubrinal compared to compound alone (A2780 cells; salubrinal 10 μM) [fold] | expression of apoptosis positive proteins [2] | IC50 (A2780 cells; read-out: IC50 in the absence of pifithrin-α) [µM] | IC50 (A2780 cells; read-out: IC50 in the absence of pifithrin-μ) [µM] | IC50 (A2780 cells; pifithrin-α 10 μM, read-out: IC50 in the presence of pifithrin-α) [µM] | IC50 (A2780 cells; pifithrin-μ 10 μM, read-out: IC50 in the presence of pifithrin-μ) [µM] | effect of salubrinal on toxicity (A2780 cells; salubrinal 10 μM) |
| --- | --- | --- | --- | --- | --- | --- | --- | --- | --- | --- |
| [N]#[Os]1([Cl])([Cl])([Cl])[N]2C=CC(c3ccccc3)=c3ccc4c(c32)[N]1C=CC=4c1ccccc1 [Complex 4, OsN(4,7-diphenyl-1,10-phenanthroline)Cl3] | about 14 pmol/μg | little effect | unaffected | 13.3 | expressed apoptosis positive proteins, cleaved caspase 3, 7, 9, and poly ADP ribose polymerase (PARP) | – | – | – | – | – |
| [N]#[Os]1([Cl])([Cl])([Cl])[N]2C=CC=c3ccc4c(c32)[N]1C=CC=4 [Complex 2, OsN(1,10-phenanthroline)Cl3] | about 21 pmol/μg | little effect | increased significantly | – | expressed apoptosis positive proteins, cleaved caspase 3, 7, 9, and poly ADP ribose polymerase (PARP) | ~4.5 | ~2 | ~2 | ~30 | limited effect |
